The values that follow come from patent publication US6187585A, “Oligonucleotide inhibition of epidermal growth factor receptor expression” (Isis Pharmaceuticals, Inc., priority 1999, dated 2001).

In one data set the test system is EGFR protein. Nature of the data set: EGFR protein synthesis, metabolic labeling and immunoprecipitation, SKOV3 cells. The class given is cell-based, human. The conditions noted are these: 35S-methionine labeling, compared to untreated cells. The method, then: Human SKOV3 ovarian carcinoma cells were obtained from the American Type Culture Collection. They were grown in McCoy's 5A medium containing NaHCO3, 10% fetal bovine serum and antibiotics and routinely passaged. A549 human lung carcinoma cells were routinely passaged in DMEM medium supplemented with 10% fetal bovine serum.
SKOV3 cells were treated with the indicated oligonucleotides in serum-free, methionine-free OPTI-MEM® medium for 2.5 hours. The medium was then replaced with methionine-free OPTI-MEM® containing ^35 S-methionine (100 μCi/ml) and 2% dialyzed fetal bovine serum for 10 hours. Cell extracts were prepared as described by Kumar et al., Proc. Natl. Acad. Sci. USA, 1992, 89, 6599. Aliquots containing equal amounts of trichloroacetic acid-precipitable counts per minute were subjected to immunoprecipitation with anti-EGFR monoclonal antibody 528/rabbit anti-mouse IgG/protein A-Sepharose conjugate. Kumar et al., Proc. Natl. Acad. Sci. USA, 1992, 89, 6599 and Korutla et al., Carcinogenesis, 1995, 16, 1741. Lysates containing equal amounts of protein were also resolved on a 10% SDS-polyacrylamide gel and stained with Coomassie blue.
ISIS 10563, ISIS 12876 and ISIS 12877 were added to exponentially growing SKOV3 cells. Cells were metabolically labeled with ^35 S-methionine and newly synthesized EGFR protein was immunoprecipitated. […] Coomassie blue staining confirmed that proteins other than EGFR were not affected by treatment of cells with antisense oligonucleotides.

The test system of data set [1] is EGFR mRNA. The experiment in a line: EGFR mRNA, Northern blot, both cell types together (A549 and SKOV3). The class given is cell-based, human. The conditions noted are these: 300 nM. The method, then: SKOV3 and A549 cells were grown in T-75 flasks until 65-75% confluent. The cells were washed once with serum-free OPTI-MEM® medium (Life Technologies, Inc., Grand Island, N.Y.) and 5 ml of the serum-free OPTI-MEM® containing 15 μg/ml of LIPOFECTIN® reagent (a 1:1 liposome formulation of the cationic lipid DOTMA and DOPE, Life Technologies, Inc.) was added. At that time, 300 nM of oligonucleotide was added and swirled vigorously. After a 4-5 hour incubation at 37° C., the solution was removed and fresh maintenance medium containing 10% fetal bovine serum was added. The cells were again incubated overnight at 37° in 5% CO2, after which the cells were assayed for EGFR MRNA expression or cell growth.
Total mRNA was extracted from the cells. For SKOV3 cells, cells were washed twice with PBS and 1-2 ml of RNAZOL B® (Tel-Test, Inc., Friendswood Tex.) was added. An incubation at 4° C. for 5-30 minutes was done and the cells were scraped into an Eppendorf tube. This solution was frozen at -80° C. for 20 minutes, thawed and chloroform (200 μl/ml) was added. The solution was centrifuged at 12,000×g for 15 minutes at 4° C. and the aqueous layer was transferred to a clean Eppendorf tube. An equal volume of isopropanol was added and incubated at room temperature for 15 minutes. Another centrifugation at 12,000×g for 15 minutes at 4° C. was done. The pellet was washed with 500 μl of 75% ethanol and centrifuged at 7500×g for 5 minutes at 4° C. As much of the supernatant as possible was removed and the pellet was resuspended in 30 μl of double distilled water. For A549 cells, total mRNA was extracted using a guanidinium/cesium chloride extraction protocol as described by Dean et al., J. Biol. Chem., 1994, 269, 16416. Ten μg of this mRNA was resolved on a 1.0% agarose gel containing 3.0% formaldehyde and transferred to a nylon membrane. […] The membrane was exposed to autoradiography film at -80° C. and the MRNA bands quantitated using a densitometer (Molecular Dynamics). Blots were stripped of radioactivity by boiling and then reprobed with a ^32 P-labeled control probe which hybridized either to G3PDH (Clontech Laboratories, Inc., Palo Alto Calif.) or β-actin (Ambion, Austin Tex.).
Some of the oligonucleotides in Table 1 were tested for their ability to inhibit EGFR mRNA expression in A549 human lung carcinoma cells and SKOV3 human ovarian carcinoma cells, both of which overexpress the EGFR. […] Total RNA was extracted and quantitated by Northern blot analysis, using PCR-generated EGFR cDNA probes. Bands were quantitated on a densitometer and normalized to control probe bands (G3PDH for the A549 cells and β-actin for the SKOV3 cells). […]

Data set [2] concerns EGFR mRNA. Nature of the data set: EGFR mRNA inhibition, Northern blot, SKOV3 human ovarian carcinoma cells. The class given is cell-based. The conditions noted are these: for % Inhibition of EGFR mRNA (10 kb band): 300 nM oligonucleotide, 15 μg/ml LIPOFECTIN, relative to untreated control, normalized to β-actin.
For data set [3], the system named is EGFR mRNA. Nature of the data set: EGFR mRNA inhibition, Northern blot, A549 human lung carcinoma cells. It counts as cell-based. The conditions noted are these: for % Inhibition of EGFR mRNA (10 kb band): 300 nM oligonucleotide, 15 μg/ml LIPOFECTIN, relative to untreated control, normalized to G3PDH.
For another data set, the system named is A431 cells. The conditions noted are these: cited from earlier work.
The test system of the next data set is EGFR tyrosine kinase. The conditions noted are these: cited from earlier work.
Setting [4] is: 300 nM, scrambled control, 10 kb band.

Strand notation (5' to 3'): a small letter for the sugar, then the base; units joined by * are phosphorothioate-linked, units joined directly phosphodiester-linked; [ ] holds rarer units or linkages, { } end groups; capitals alone tell only the bases. d = 2'-deoxy (DNA)

Regarding “ISIS 12876: CCCCAGCAGCTCCCATTGGG; 5-methyl C; phosphorothioate; coding region, Ullrich 769-788 (all C 5-methyl, all phosphorothioate, sugars by position not given here)”, the “reduction of EGFR protein production / EGFR synthesis” value in the data set on EGFR protein is 90-98%. Besides, the “reduction of EGFR mRNA expression, ranking in words” value (“reduction of EGFR mRNA expression” for short) in the data set with EGFR mRNA [1] is recorded as “greatest amount of reduction of EGFR mRNA expression in both cell types”. Besides, the “% Inhibition of EGFR mRNA (10 kb band)” value is reported as 66% in the data set with EGFR mRNA [2] and 97% in the data set on EGFR mRNA [3].

Turning to “ISIS 10565: CTCGGCTGACATTCCGGCAA; phosphorothioate 2'-deoxy; coding region, Ullrich 1761-1780 (antisense dC*dT*dC*dG*dG*dC*dT*dG*dA*dC*dA*dT*dT*dC*dC*dG*dG*dC*dA*dA)”, the “% Inhibition of EGFR mRNA (10 kb band)” value was determined as 33% with EGFR mRNA [2] and 43% in the data set with EGFR mRNA [3].

Consider “ISIS 10563: CCCCAGCAGCTCCCATTGGG; phosphorothioate deoxyoligonucleotide; coding region, Ullrich 769-788 (antisense dC*dC*dC*dC*dA*dG*dC*dA*dG*dC*dT*dC*dC*dC*dA*dT*dT*dG*dG*dG)”, for which, in the data set on EGFR protein, the “reduction of EGFR protein production / EGFR synthesis” value was 90-98%. In the data set with EGFR mRNA [1], the “reduction of EGFR mRNA expression” value is on record as “greatest amount of reduction of EGFR mRNA expression in both cell types”. Further, the figures for the “% Inhibition of EGFR mRNA (10 kb band)” value with EGFR mRNA [2] and in the data set with EGFR mRNA [3] were 61% and 95%, respectively.

On to “ISIS 12877: CUCGGCTGACATTCCGGCAA; 2'-fluoro; phosphorothioate (all phosphorothioate, sugars by position and methylation of C not given here; 2'-fluoro modification, further chemistry not fully specified)”, for which the “reduction of EGFR protein production / EGFR synthesis” value with EGFR protein is on record as 90-98%. For the same molecule, the “reduction of EGFR mRNA expression” value with EGFR mRNA [1] is recorded as “greatest amount of reduction of EGFR mRNA expression in both cell types”. Besides, the “% Inhibition of EGFR mRNA (10 kb band)” value with EGFR mRNA [2] is recorded as 61%; in the data set with EGFR mRNA [3] it was 93%.

Consider “ISIS 12139: GAGTTCGCGTCCTTTCTCCA; scrambled control; phosphorothioate (all phosphorothioate, sugars by position and methylation of C not given here) [reference compound]”, for which the “reduction of EGFR protein production / EGFR synthesis” value in the data set with EGFR protein turned out to be 10%. Also, the results for the “increase in EGFR mRNA compared to untreated controls” value with EGFR mRNA [2] (setting [4]) and with EGFR mRNA [3] (setting [4]) were 39% and 18%, respectively.

For the molecule `COc1cc2ncnc(Nc3cccc(Br)c3)c2cc1OC` [PD153035], the “inhibition of the growth of A431 cells in nude mice” value in the data set with A431 cells is “can inhibit the growth of A431 cells in nude mice”. In addition, in the data set on EGFR tyrosine kinase, the “inhibition of EGFR tyrosine kinase activity” value is reported as “inhibits EGFR tyrosine kinase activity”.

As to “ISIS 12878: GAGGCGTTCTCCTUUCUCCA; 2'-O-propyl; phosphorothioate; coding region, Ullrich 2966-2985 (all phosphorothioate, sugars by position and methylation of C not given here; 2'-O-propyl modification, further chemistry not fully specified)”, the “% Inhibition of EGFR mRNA (10 kb band)” value in the data set with EGFR mRNA [2] is 22%; in the data set with EGFR mRNA [3], “greater than 50%”; with EGFR mRNA [3] (listed as 12878), 66%.

“ISIS 12875: CCCCAGCAGCTCCCAUUGGG; 2'-fluoro; phosphorothioate; coding region, Ullrich 769-788 (all phosphorothioate, sugars by position and methylation of C not given here; 2'-fluoro modification, further chemistry not fully specified)”: the “reduction of EGFR mRNA expression” value in the data set with EGFR mRNA [1] is listed as “slightly less potent”. Also, the “% Inhibition of EGFR mRNA (10 kb band)” value with EGFR mRNA [2] stood at 57%; in the data set on EGFR mRNA [3] it was 77%.

With “ISIS 10561: TGTCGGCCCCACAGGCTCGG; phosphorothioate 2'-deoxy; coding region, Ullrich 1110-1129 (antisense dT*dG*dT*dC*dG*dG*dC*dC*dC*dC*dA*dC*dA*dG*dG*dC*dT*dC*dG*dG)”, the figures for the “% Inhibition of EGFR mRNA (10 kb band)” value in the data set on EGFR mRNA [2], with EGFR mRNA [3] and in the data set with EGFR mRNA [3] (listed as 10561) were 45%, “greater than 50%” and 75%, respectively.
